From PubChem BioAssay (NCI)
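Cells were grown in 96-well plates and exposed to each compound for 48 hours at five concentrations; endpoints were interpolated linearly between bracketing concentrations, or set to the highest concentration if not reached. The concentration for full growth arrest is given as TGI.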

Experiments:
Test in all cases: inhibition of tumour cell growth, NCI panel, 48 h
[1] = system: SNB-19 CNS
[2] = system: PC-3 prostate
[3] = system: UACC-62 melanoma
[4] = system: NCI/ADR-RES ovarian
[5] = system: HCC-2998 colon
[6] = system: HCT-116 colon
[7] = system: MOLT-4 leukemia
[8] = system: 786-0 renal
[9] = system: A498 renal
[10] = system: SF-295 CNS
[11] = system: NCI-H23 lung
[12] = system: SNB-75 CNS
[13] = system: OVCAR-4 ovarian
[14] = system: OVCAR-5 ovarian
[15] = system: SN12C renal
[16] = system: TK-10 renal
[17] = system: MDA-N
[18] = system: CAKI-1 renal
[19] = system: HT29 colon
[20] = system: MDA-MB-435
[21] = system: LOX IMVI melanoma
[22] = system: A549 NSCLC
[23] = system: CCRF-CEM leukemia
[24] = system: NCI-H226 lung
[25] = system: K-562 leukemia
[26] = system: SK-MEL-2 melanoma
[27] = system: T-47D breast
[28] = system: EKVX NSCLC
[29] = system: M14 melanoma
[30] = system: NCI-H460 lung
[31] = system: UACC-257 melanoma
[32] = system: RPMI-8226 leukemia
[33] = system: MCF7 breast
[34] = system: COLO 205 colon
[35] = system: U251 CNS
[36] = system: SF-539 CNS
[37] = system: UO-31 renal
[38] = system: HS 578T breast
[39] = system: ACHN renal
[40] = system: MALME-3M melanoma
[41] = system: SK-MEL-5 melanoma
[42] = system: OVCAR-8 ovarian
[43] = system: NCI-H522 lung
[44] = system: OVCAR-3 ovarian
[45] = system: IGROV1 ovarian
[46] = system: SR leukemia
[47] = system: SK-MEL-28 melanoma
[48] = system: SK-OV-3 ovarian
[49] = system: HOP-62 NSCLC
[50] = system: KM12 colon
[51] = system: SF-268 CNS
[52] = system: HOP-92 NSCLC
[53] = system: BT-549 breast
[54] = system: DU-145 prostate
[55] = system: HL-60(TB) leukemia
[56] = system: HCT-15 colon
[57] = system: SW-620 colon
[58] = system: MDA-MB-231 breast
[59] = system: RXF 393 renal

Cc1c2c(n(CCc3ccc(Cl)cc3)c1C)NC(c1ccccc1)C(C#N)S2(=O)=O (stereo unspecified)
TGI [1]: > 100 µM | TGI [2]: > 100 µM | TGI [3]: > 100 µM | TGI [4]: > 100 µM | TGI [5]: > 100 µM | TGI [6]: > 100 µM | TGI [7]: 11.6 µM | TGI [8]: > 100 µM | TGI [9]: > 100 µM | TGI [10]: > 100 µM | TGI [11]: > 100 µM | TGI [12]: > 100 µM | TGI [13]: > 100 µM | TGI [14]: > 100 µM | TGI [15]: > 100 µM | TGI [16]: > 100 µM | TGI [17]: > 74.9 µM | TGI [18]: > 100 µM | TGI [19]: > 65.9 µM | TGI [20]: > 66.9 µM | TGI [21]: > 75 µM | TGI [22]: > 100 µM | TGI [23]: 5.07 µM | TGI [24]: > 100 µM | TGI [25]: 47.8 µM | TGI [26]: > 68.9 µM | TGI [27]: > 100 µM | TGI [28]: > 100 µM | TGI [29]: > 100 µM | TGI [30]: > 100 µM | TGI [31]: > 100 µM | TGI [32]: 57.8 µM | TGI [33]: > 60.1 µM | TGI [34]: > 71.4 µM | TGI [35]: > 100 µM | TGI [36]: > 100 µM | TGI [37]: > 100 µM | TGI [38]: > 79.5 µM | TGI [39]: > 100 µM | TGI [40]: > 80.2 µM | TGI [41]: 14.3 µM | TGI [42]: > 100 µM | TGI [43]: > 100 µM | TGI [44]: > 100 µM | TGI [45]: > 100 µM | TGI [46]: 38.2 µM | TGI [47]: > 100 µM | TGI [48]: > 100 µM | TGI [49]: > 100 µM | TGI [50]: > 100 µM | TGI [51]: > 100 µM | TGI [52]: > 100 µM | TGI [53]: > 100 µM | TGI [54]: > 100 µM | TGI [55]: > 100 µM | TGI [56]: > 100 µM | TGI [57]: > 100 µM | TGI [58]: > 59.3 µM

CC(C)C(OC(=O)c1ccc(NCc2cc(O)ccc2O)cc1)C(C)C
TGI [1]: 7.06 µM | TGI [2]: 3.96 µM | TGI [3]: 3.27 µM | TGI [4]: 6.14 µM | TGI [5]: 10.2 µM | TGI [6]: 14 µM | TGI [59]: 1.65 µM | TGI [7]: 0.956 µM | TGI [8]: 2.42 µM | TGI [9]: 9.58 µM | TGI [10]: 15.4 µM | TGI [11]: 6.56 µM | TGI [12]: 3.7 µM | TGI [13]: 4.33 µM | TGI [14]: 6.16 µM | TGI [15]: 11.9 µM | TGI [16]: 3.62 µM | TGI [17]: 12.9 µM | TGI [18]: 0.701 µM | TGI [19]: 16.6 µM | TGI [20]: 5.59 µM | TGI [21]: 2.31 µM | TGI [22]: 20.7 µM | TGI [23]: 0.589 µM | TGI [24]: 5.47 µM | TGI [25]: 4.12 µM | TGI [26]: 6.68 µM | TGI [27]: 3.4 µM | TGI [28]: 5.32 µM | TGI [29]: 6.93 µM | TGI [30]: 14.7 µM | TGI [31]: 3.83 µM | TGI [32]: 0.931 µM | TGI [33]: 16.4 µM | TGI [34]: 5.56 µM | TGI [35]: 2.85 µM | TGI [36]: 2.47 µM | TGI [37]: 2.42 µM | TGI [38]: 8.09 µM | TGI [39]: 2.33 µM | TGI [40]: 3.3 µM | TGI [41]: 7.45 µM | TGI [42]: 3.77 µM | TGI [43]: 0.391 µM | TGI [44]: 4.37 µM | TGI [45]: 2.35 µM | TGI [46]: 2.43 µM | TGI [47]: 3.23 µM | TGI [49]: 21.7 µM | TGI [50]: 11.1 µM | TGI [51]: 5.3 µM | TGI [52]: 1.36 µM | TGI [53]: 2.23 µM | TGI [54]: 20.9 µM | TGI [55]: 0.484 µM | TGI [56]: 1.77 µM | TGI [57]: 7.95 µM | TGI [58]: 9.15 µM
